Measured values reported in patent publication US6375946B1, “Enhanced activation of natural killer cells using an NK cell activator and a hydrogen peroxide scavenger or inhibitor” (Maxim Pharmaceuticals, Inc., priority 1994, dated 2002).

Legend:
[1] = system: NK cells (cytotoxicity against K562 target cells); experiment: cells; conditions: for reversal of inhibition of NK cells induced by H2O2: catalase 20 U/ml, data not shown; for time of addition at which the NK cell suppressive signal is inhibited: histamine 10^−4 M or catalase 20 U/ml added at time points after assay start; for effect on NK-cell-mediated killing of tumor cells in the absence of monocytes: no monocytes, NK cells unactivated or IL-2 activated
Experimental: Using blood obtained from a healthy human blood donor, we studied the effects of catalase on NK cell-mediated killing of tumor cells. K562 cells, from an NK sensitive erythroleukemic cell line, were used as target cells in all experiments. Washed cells (10×10^6 cells/ml) were incubated with ^51Cr (Amersham) at a concentration of 150 FCi/ml cell suspension for 2-4 hours. After centrifugation and resuspension in cell culture medium, 10^4 cells in 50 FL portions were added to the effector cells in microplate wells.
In the first set of experiments, human NK cells alone (1.5×10^5 cells/well) were added to the K562 target cells. […] The cells were then exposed to catalase (Boehringer-Mannheim) at concentrations of 0 to 100 U/ml. These same conditions were repeated using human NK cells admixed with 30% human peripheral blood monocytes, recovered by centrifugal elutriation, added to the target K562 cells.
After incubation at 37EC for 16 hours, supernatant fluids were collected by a tissue collecting system (Amersham) and assayed for radioactivity in a gamma counter. Maximum ^51Cr release was determined in target cell cultures treated with Triton-X. NK cell cytotoxicity was calculated as cell lysis % according to the following formula: [formula]
To study the relationship between the monocyte-derived inhibitory signal and the respiratory burst activity of monocytes, we added catalase and various other scavengers of reactive oxygen metabolites to NK cells, alone or admixed with monocytes. We then measured the cytotoxicity of the NK cells against NK cell sensitive K562 target cells as described above.
Cell culture medium (control), histamine (10^−4 M), or catalase (20 U/ml), was added to either enriched NK cells alone or a mixture of NK cells and monocytes (1.5×10^5 cells/well). These mixtures were then incubated with K562 target cells in sextuplicate in microplates in a total volume of 200 Fl and assayed for microcytotoxicity.
Culture medium (control) or H2O2 at concentrations between 0-10 FM was added to NK cell enriched lymphocytes for assay of cytotoxicity against ^51Cr K562 target cells as described above.
MPO (100 U/ml) and H2O2 at concentrations between 0-10 FM were added to NK cell enriched lymphocytes for assay of cytotoxicity against ^51Cr K562 target cells as described above.
A mixture of enriched NK cells and monocytes were treated with culture medium (control), histamine (10^−4 M), or catalase (20 U/ml) and assayed for microcytotoxicity against target K562 cells as described above in connection with Example 1. […] The data shown is cell lysis % ±s.e.m. of sextuplicates.

monocytes = experiment: Luminol-enhanced chemiluminescence (respiratory burst) of elutriated monocytes; type: cell-based, human
Experimental: Formylmethionyl-leucyl-phenylalanine was dissolved to 10^−2 M in dimethyl sulfoxide and subsequently diluted in Krebs-Ringer phosphate buffer supplemented with glucose (10 mM), Ca^2+ (1 mM), and Mg^2+ (1.5 mM).
In a second set of experiments, effects of histamine and H2R-interactive compounds on the respiratory burst activity, as measured by the luminol-enhanced CL response of enriched, elutriated monocytes, were studied. Monocytes were treated with culture medium (control), histamine (10^−5 M), sodium azide (10^−5 M), or histamine and sodium azide as described below. Emission of CL was recorded after addition of fMLP at time=0.
To assess whether histamine acted by inhibiting the generation of H2O2 or by reducing the availability of peroxidase, we next studied the effects of histamine in monocytes treated with sodium azide to inhibit endogenous myeloperoxidase (MPO) and with exogenous, azide-insensitive peroxidase (HRP) in excess.
To exclude non-specific effects of ranitidine, we used a ranitidine analog (AH20239AA; […]; Glaxo) in which the thioether of ranitidine is replaced by an ether, thereby strongly reducing its H2R antagonist properties. In these experiments, monocytes were treated with histamine (10^−5 M) together with ranitidine or AH20239AA at final concentrations indicated in FIG. 7. All cells were treated with fMLP at time=0. Peak CL recorded in untreated monocytes (control) was 2.5×10^7 cpm.

[2] = system: NK cells (cytotoxicity against K562 target cells)
Experimental: In additional experiments, NK cell enriched lymphocytes were pretreated in petri dishes with culture medium (control), catalase or histamine, in the concentrations indicated below in Table II, in the presence or absence of monocytes. After 1 hour incubation, nonadherent lymphocytes were recovered, washed twice, and assayed for cytotoxicity as described above. We wished to determine whether the NK cell inhibitory signal was reversible by removal of monocytes and removal of monocyte-derived products. […] Data are cell lysis % ±s.e.m. of sextuplicates and are the results of 2 separate experiments.

RBC = system: RBC
Experimental: (§1) Further, we used an assay system in which lysis of elutriated , ^51Cr -labelled RBC was measured in microplates.

NK cells = experiment: IL-2-induced NK cell proliferation (3H-methyl-thymidine incorporation); type: cell-based, human; conditions: histamine 10^−4 M or catalase 20 U/ml, IL-2 50 U/ml, 48 hours
Experimental: During the last 8 hours of incubation, cells were pulsed with ^3H-methyl-thymidine (specific activity […]; New England Nuclear Corp.; 1 FCi/2×10^5 cells). Following incubation, the cells were collected on glass fiber filters with an automatic cell harvester and cell-incorporated ^3H-methyl-thymidine was estimated by liquid scintillography.

[3] = histamine 10^−4 M, cell free
Experimental: The reaction mixture contained 0.8 ml elutriated monocytes (5×10^6 cells/ml).
as §1

[4] = system: YAC-1 mouse lymphoma cells; experiment: NK cell-mediated clearance of 51Cr-labeled YAC-1 lymphoma cells from lungs in vivo; design: species or system Swiss Albino mice; conditions: 100 U/kg intravenously, 2 hours, four experiments
Experimental: FIG. 2 graphically depicts the activation of NK cell-mediated clearance of YAC-1 lymphoma cells in vivo by catalase. Seventy-five thousand YAC-1 cells labeled with ^51Cr were injected intravenously into male or female 4-6-week-old Swiss Albino mice, together with vehicle (control; open bars) or catalase (100 U/kg; filled bars). Two hours after the inoculation of tumor cells, the mice were sacrificed by cervical dislocation. […] Results from 4 separate experiments are shown. Each bar represents the mean “s.e.m. of 3-5 animals.
Seventy-five thousand ^51Cr-labeled, NK cell-sensitive YAC-1 mouse lymphoma cells were injected intravenously into male or female 4 to 6 week old Swiss Albino mice, together with vehicle (control) or 100 U/kg catalase. Two hours after inoculation with the tumor cells, the mice were sacrificed by cervical dislocation. The lungs were removed and placed in test tubes in a gamma-counter, and the radioactivity in the lung tissue was measured. The radioactivity in lung tissue is an inverse measure of NK cell-mediated killing of tumor cells in vivo (see Hanna et al., JNCI 65:801 (1980)), and is expressed as a percent of the ^51Cr that is retained in lungs immediately after inoculation of radiolabeled tumor cells.

CNC(=C[N+](=O)[O-])NCCOCc1ccc(CN(C)C)o1 [AH20239AA]
potency relative to ranitidine in antagonizing effects of histamine on suppression of NK cell function by monocytes (fold less potent) [1]: more than 100 fold | potency relative to ranitidine in antagonizing inhibition of respiratory burst activity by histamine (fold less potent) (monocytes; histamine 10^−5 M): more than 100 fold

CN(C)CCCSC(=N)N [Dimaprit]
effect on the respiratory burst of monocytes (H2R-interactive compounds) (monocytes): mimicked the effect of histamine | incubation time until effect on respiratory burst is maximal (monocytes; data not shown): 10 to 15 min

OO [H2O2, hydrogen peroxide]
effect on cytotoxicity of enriched NK cells [1]: effectively suppressed | EC50 ([1]; Homo sapiens, K562, read-out: ED50 of suppression of NK cell cytotoxicity): ~2 µM | inhibition of NK cell cytotoxicity after pretreatment and washing [2]: sufficient to effectively inhibit | lysis of RBC (RBC; H2O2 5×10^−5 M, 10^5 RBC): approximately 50%

CC(=O)N(O)CCCCCNC(=O)CCC(=O)N(O)CCCCCNC(=O)CCC(=O)N(O)CCCCCN [deferox, deferoxamine]
effect on monocyte-induced inhibition of baseline NK cell cytotoxicity [1]: ineffective

NCCc1c[nH]cn1 [histamine]
effect on monocyte-induced inhibition of baseline NK cell cytotoxicity [1]: abrogated | concentration at which histamine abrogates monocyte induced suppression of NK cells ([1]; NK cells with monocytes): exceeding 10^−7 M | reversal of inhibition of NK cells induced by H2O2 [1]: not | effect of histamine on monocyte induced suppression of NK cells in the presence of catalase ([1]; catalase present): ineffective | time of addition at which the NK cell suppressive signal is inhibited [1]: within the first hour | reversal of monocyte-induced inhibition of IL-2-induced NK cell proliferation (NK cells): effectively reverse | time to block respiratory burst activity (monocytes; data not shown): within seconds | effect on burst activity of unstimulated monocytes and induction of burst by fMLP (monocytes; histamine 10^−5 M): effectively inhibited | effect on fMLP induced CL response with sodium azide and exogenous HRP in excess (monocytes; sodium azide 10^−5 M, HRP): inhibited | CL recorded with H2O2 and/or MPO or H2O2 and HRP [3]: unchanged | effect on level of RBC killing induced by H2O2 (RBC; histamine 10^−4 M): did not alter

OC[C@@H](O)[C@@H](O)[C@H](O)[C@H](O)CO [mannitol]
effect on monocyte-induced inhibition of baseline NK cell cytotoxicity [1]: ineffective

CN(C)CCSC(=N)N [nor-dimaprit]
effect on the respiratory burst of monocytes (H2R-interactive compounds) (monocytes): ineffective

NCCS(=O)(=O)O [taurin]
effect on monocyte-induced inhibition of baseline NK cell cytotoxicity [1]: ineffective

catalase
effect on monocyte-induced inhibition of baseline NK cell cytotoxicity [1]: completely abrogate | concentration at which catalase reverses the monocyte suppressive signal ([1]; NK cells with monocytes): exceeding 10 U/ml | concentration at which catalase reverses the monocyte suppressive signal ([1]; NK cells with monocytes, listed as Catalase): exceeding 5 U/ml | reversal of inhibition of NK cells induced by H2O2 [1]: completely reversed | time of addition at which the NK cell suppressive signal is inhibited [1]: within the first hour | effect on NK-cell-mediated killing of tumor cells in the absence of monocytes [1]: does not affect | effect on NK-cell-mediated killing of tumor cells in the absence of monocytes ([1]; listed as Catalase): had no effect | NK cell-mediated killing of YAC-1 lymphoma cells in vivo (retained lung radioactivity) [4]: augmented | reversal of monocyte-induced inhibition of IL-2-induced NK cell proliferation (NK cells): effectively reverse

superoxide dismutase [SOD]
effect on monocyte-induced inhibition of baseline NK cell cytotoxicity [1]: did not alter

B1: myeloperoxidase (protein, UniProt P05164 165-745, looked up)
Myeloperoxidase: VTCPEQDKYRTITGMCNNRRSPTLGASNRAFVRWLPAEYEDGFSLPYGWTPGVKRNGFPVALARAVSNEIVRFPTDQLTPDQERSLMFMQWGQLLDHDLDFTPEPAARASFVTGVNCETSCVQQPPCFPLKIPPNDPRIKNQADCIPFFRSCPACPGSNITIRNQINALTSFVDASMVYGSEEPLARNLRNMSNQLGLLAVNQRFQDNGRALLPFDNLHDDPCLLTNRSARIPCFLAGDTRSSEMPELTSMHTLLLREHNRLATELKSLNPRWDGERLYQEARKIVGAMVQIITYRDYLPLVLGPTAMRKYLPTYRSYNDSVDPRIANVFTNAFRYGHTLIQPFMFRLDNRYQPMEPNPRVPLSRVFFASWRVVLEGGIDPILRGLMATPAKLNRQNQIAVDEIRERLFEQVMRIGLDLPALNMQRSRDHGLPGYNAWRRFCGLPQPETVGQLGTVLRNLKLARKLMEQYGTPNNIDIWMGGVSEPLKRKGRVGPLLACIIGTQFRKLRDGDRFWWENEGVFSMQQRQALAQISLPRIICDNTGITTVSKNNIFMSNSYPRDFVNCSTLPALNLASWREAS
potentiation of the suppressive effect of H2O2 on NK cells ([1]; MPO 100 U/ml with H2O2 0-10 FM): did not potentiate | scavenging of H2O2 ([1]; MPO 100 U/ml with H2O2 0-10 FM): slightly but significantly scavenged
